This is an account of results in patent US20260242388A1, “NBD1 MODULATORS AND METHODS OF USING THE SAME” (Sionna Therapeutics Inc., priority 2023, published 2026).

The subject of the test is NBD1. In words: Aggregation analysis using differential static light scattering (DSLS), thermal stability of NBD1. It counts as binding, Human. As to conditions: 100 μM compound; ΔTagg = Tagg minus average Tagg of DMSO control wells; NBD1 0.2 mg/ml. Here is the method:
Example 23. Aggregation Analysis Using Differential Static Light Scattering (DSLS)
Purified recombinant NBD1 was produced using previously described methods (A. Schmidt, J. L. Mendoza, P. J. Thomas (2011) Biochemical and Biophysical Approaches to Probe CFTR Structure (365-376) M. D. Amaral, K. Kunzelmann (eds.), Cystic Fibrosis, Methods in Molecular Biology 741, Springer Science+Business Media). The effect of test compounds on thermal stability of NBD1 was evaluated by differential static light scattering (DSLS) using the Harbinger Stargazer-384 instrument (Epiphyte Three, Toronto, Canada). Test compounds were dissolved and diluted to desired concentrations in 100% DMSO. The compounds or DMSO controls (100 nL) were stamped into wells of a […] low volume optical plate (Corning Inc., Corning, NY) using the Echo 555 acoustic liquid handler (Labcyte Inc., San Jose, CA).
NBD1 protein was diluted to 0.2 mg/ml in S200 buffer (50 mM Tris-HCl, 150 mM NaCl, 5 mM MgCl2, 2 mM ATP, 2 mM DTT, pH7.6) containing 1% glycerol. 10 μL of protein solution was aliquoted into the 384-well plate harboring the test compounds and 10 μL mineral oil was overlayed onto the protein solution, using the epMotion robotic liquid handler (Eppendorf North America, Hauppauge, NY). After placing into the Stargazer instrument, the plate was heated at 1° C. per minute to 70° C. Images were captured from 25° C. to 70° C. every 0.5° C. At the end of the experiment run, instrument software integrated image files and analyzed data automatically. A linear regression curve was generated for each well, representing the increase in light scattering over time. A temperature of aggregation (Tagg) was calculated based on the inflection point of the curve. To better compare data across experiments the average Tagg for DMSO control wells was calculated and subtracted from values for wells containing compounds to obtain a “ΔTagg” value. These ΔTagg values reflect stabilizing efficacy of the compounds.

For `O=C(O)CCc1cccc([C@@H]2NCCc3nc(-c4cc(Oc5c(F)cc6[nH]ccc6c5F)ccc4F)[nH]c32)c1F` (single isomer, unassigned) [Example 4], the “DSLS NBD1/3D Human Stability delta-T (° C.) @ 100 (μM)” value (shortened to “DSLS NBD1/3D Human Stability delta-T”) was “C (≤4° C.)”.
Regarding `CN1CCc2nc(-c3cc(Oc4c(F)cc5[nH]ccc5c4F)ccc3F)[nH]c2[C@H]1c1cccc(CCC(=O)O)c1F` (single isomer, unassigned) [Example 5], the “DSLS NBD1/3D Human Stability delta-T” value was “B (4-8° C.)”.
The entry for `CN1CCc2nc(-c3cc(Oc4c(F)cc5[nH]ccc5c4F)ccc3F)[nH]c2[C@@H]1c1cccc(CCC(=O)O)c1F` (single isomer, unassigned) [Example 6] is “A (T ≥ 8° C.)”; for `O=C(O)Cc1cccc(C2OCCc3[nH]c(-c4cc(Oc5c(F)cc6[nH]ccc6c5F)ccc4F)nc32)c1` (stereo not shown) [Example 2, 2-(3-(2-(5-((4,6-difluoro-1H-indol-5-yl)oxy)-2-fluorophenyl)-1,4,6,7-tetrahydropyrano[3,4-d]imidazol-4-yl)phenyl)acetic acid] it is “B (4-8° C.)”; for `CC(Cc1cccc(C2c3nc(-c4cc(Oc5c(F)cc6[nH]ccc6c5S(C)(=O)=O)ccc4F)[nH]c3CCN2C)c1F)C(=O)O` (stereo not shown) [Example 7, 3-[2-fluoro-3-[2-[2-fluoro-5-[(6-fluoro-4-methylsulfonyl-1H-indol-5-yl)oxy]phenyl]-5-methyl-1,4,6,7-tetrahydroimidazo[4,5-c]pyridin-4-yl]phenyl]-2-methyl-propanoic acid] it is “A (T ≥ 8° C.)”.
On to `Cc1c(-c2cc(Oc3c(F)cc4[nH]ccc4c3F)ccc2F)nc2n1CCNC2c1cccc(CC(O)CO)c1F` (stereo not shown) [Example 9, 3-[3-[2-[5-[(4,6-difluoro-1H-indol-5-yl)oxy]-2-fluoro-phenyl]-3-methyl-5,6,7,8-tetrahydroimidazo[1,2-a]pyrazin-8-yl]-2-fluoro-phenyl]propane-1,2-diol], for which the “DSLS NBD1/3D Human Stability delta-T” value is listed as “B (4-8° C.)”.
Turning to `CCOC(=O)C(C)Cc1cccc(C2NCCn3c2nc(-c2cc(Oc4c(F)cc5[nH]ccc5c4F)ccc2F)c3C)c1F` (stereo not shown) [Example 10, ethyl 3-[3-[2-[5-[(4,6-difluoro-1H-indol-5-yl)oxy]-2-fluoro-phenyl]-3-methyl-5,6,7,8-tetrahydroimidazo[1,2-a]pyrazin-8-yl]-2-fluoro-phenyl]-2-methyl-propanoate], the “DSLS NBD1/3D Human Stability delta-T” value is listed as “C (≤4° C.)”.
For `CCOC(=O)CCc1cccc(C2c3nc(-c4cc(Oc5c(F)cc6[nH]ccc6c5S(C)(=O)=O)ccc4F)[nH]c3CCN2C)c1F` (stereo not shown) [Example 13, ethyl 3-[2-fluoro-3-[2-[2-fluoro-5-[(6-fluoro-4-methylsulfonyl-1H-indol-5-yl)oxy]phenyl]-5-methyl-1,4,6,7-tetrahydroimidazo[4,5-c]pyridin-4-yl]phenyl]propanoate], the “DSLS NBD1/3D Human Stability delta-T” value was “B (4-8° C.)”.
Regarding `CN1CCc2[nH]c(-c3cc(Oc4c(F)cc5[nH]ccc5c4S(C)(=O)=O)ccc3F)nc2C1c1cccc(CCC(=O)O)c1F` (stereo not shown) [Example 14, 3-[2-fluoro-3-[2-[2-fluoro-5-[(6-fluoro-4-methylsulfonyl-1H-indol-5-yl)oxy]phenyl]-5-methyl-1,4,6,7-tetrahydroimidazo[4,5-c]pyridin-4-yl]phenyl]propanoic acid], the “DSLS NBD1/3D Human Stability delta-T” value was “A (T ≥ 8° C.)”.
As to `CCOC(=O)CCc1cccc(C2c3nc(-c4cc(Oc5c(F)cc6[nH]ccc6c5S(C)(=O)=O)ccc4F)[nH]c3CCN2CC(F)F)c1F` (stereo not shown) [Example 15, ethyl 3-[3-[5-(2,2-difluoroethyl)-2-[2-fluoro-5-[(6-fluoro-4-methylsulfonyl-1H-indol-5-yl)oxy]phenyl]-1,4,6,7-tetrahydroimidazo[4,5-c]pyridin-4-yl]-2-fluoro-phenyl]propanoate], the “DSLS NBD1/3D Human Stability delta-T” value was “C (≤4° C.)”.
As for `CS(=O)(=O)c1c(Oc2ccc(F)c(-c3nc4c([nH]3)CCN(CC(F)F)C4c3cccc(CCC(=O)O)c3F)c2)c(F)cc2[nH]ccc12` (stereo not shown) [Example 16, 3-[3-[5-(2,2-difluoroethyl)-2-[2-fluoro-5-[(6-fluoro-4-methylsulfonyl-1H-indol-5-yl)oxy]phenyl]-1,4,6,7-tetrahydroimidazo[4,5-c]pyridin-4-yl]-2-fluoro-phenyl]propanoic acid], the “DSLS NBD1/3D Human Stability delta-T” value is listed as “A (T ≥ 8° C.)”.
Regarding `CNC(=O)CCc1cccc(C2c3nc(-c4cc(Oc5c(F)cc6[nH]ccc6c5S(C)(=O)=O)ccc4F)[nH]c3CCN2CC(F)F)c1F` (stereo not shown) [Example 17, 3-[3-[5-(2,2-difluoroethyl)-2-[2-fluoro-5-[(6-fluoro-4-methylsulfonyl-1H-indol-5-yl)oxy]phenyl]-1,4,6,7-tetrahydroimidazo[4,5-c]pyridin-4-yl]-2-fluoro-phenyl]-N-methyl-propanamide], the “DSLS NBD1/3D Human Stability delta-T” value is “B (4-8° C.)”.
For `CCOC(=O)CCc1ccc(C2c3nc(-c4cc(Oc5c(F)cc6[nH]ccc6c5S(C)(=O)=O)ccc4F)[nH]c3CCN2C)s1` (stereo not shown) [Example 18, ethyl 3-[5-[2-[2-fluoro-5-[(6-fluoro-4-methylsulfonyl-1H-indol-5-yl)oxy]phenyl]-5-methyl-1,4,6,7-tetrahydroimidazo[4,5-c]pyridin-4-yl]-2-thienyl]propanoate], the “DSLS NBD1/3D Human Stability delta-T” value is “B (4-8° C.)”.
For the compound `CN1CCc2[nH]c(-c3cc(Oc4c(F)cc5[nH]ccc5c4S(C)(=O)=O)ccc3F)nc2C1c1ccc(CCC(=O)O)s1` (stereo not shown) [Example 19, 3-[5-[2-[2-fluoro-5-[(6-fluoro-4-methylsulfonyl-1H-indol-5-yl)oxy]phenyl]-5-methyl-1,4,6,7-tetrahydroimidazo[4,5-c]pyridin-4-yl]-2-thienyl]propanoic acid], the “DSLS NBD1/3D Human Stability delta-T” value was “A (T ≥ 8° C.)”.
The entry for `CN1CCc2[nH]c(-c3cc(Oc4c(F)cc5[nH]ccc5c4F)ccc3F)nc2C1c1cccc(CC(O)CO)c1F` (stereo not shown) [Example 20, 3-[3-[2-[5-[(4,6-difluoro-1H-indol-5-yl)oxy]-2-fluoro-phenyl]-5-methyl-1,4,6,7-tetrahydroimidazo[4,5-c]pyridin-4-yl]-2-fluoro-phenyl]propane-1,2-diol] is “B (4-8° C.)”; for `CN1CCc2[nH]c(-c3cc(Oc4c(F)cc5[nH]ccc5c4S(C)(=O)=O)ccc3F)nc2C1c1cccc(CC(O)CO)c1F` (stereo not shown) [Example 21, 3-[2-fluoro-3-[2-[2-fluoro-5-[(6-fluoro-4-methylsulfonyl-1H-indol-5-yl)oxy]phenyl]-5-methyl-1,4,6,7-tetrahydroimidazo[4,5-c]pyridin-4-yl]phenyl]propane-1,2-diol] it is “A (T ≥ 8° C.)”.
